This note sets out measurements from patent US20220251084A1, “PROGRANULIN MODULATORS AND METHODS OF USING THE SAME” (ARKUDA THERAPEUTICS, priority 2019, published 2022).

SMILES strings stand for the structures.

For the first assay, the system named is progranulin (PGRN) secretion, BV-2 cells. Put plainly: PGRN assay: progranulin induction cellular assay (ELISA of secreted mouse PGRN).
Settings: not given
Format: cell-based. In short, it runs like this:
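Progranulin induction measured in BV-2 cells plated at about 80% confluence the day before, given 1 h to attach, then incubated 16 h. Secreted mouse PGRN quantified by ELISA.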
As a reminder, the EC50 is the concentration at which the effect is half-maximal. A high value points to weaker potency. `O=C(O[C@@H]1CN2CCC1CC2)N1CCc2cccnc2[C@H]1c1ccc(F)cc1` [Compound 2055, (S)-quinuclidin-3-yl 8-(4-fluorophenyl)-5,6-dihydro-1,7-naphthyridine-7(8H)-carboxylate] displayed an EC50 of 3.3 µM. The same measure, in the same setting: for `O=C(O[C@@H]1CN2CCC1CC2)N1CCn2ccnc2C1c1ccc(F)cc1` (stereo partly drawn) [Compound 2123, (S)-quinuclidin-3-yl 8-(4-fluorophenyl)-5,6-dihydroimidazo[1,2-a]pyrazine-7(8H)-carboxylate] the value was greater than 10 µM; for `N#Cc1ccc2c(c1)CCN(C(=O)O[C@@H]1CN3CCC1CC3)[C@H]2c1ccc(F)cc1` [Compound 2033], greater than 10 µM.

Staying with this assay, now noted: Mus musculus, BV-2.
`O=C(OCC12CCN(CC1)CC2)N1CCc2ccccc2[C@@H]1c1ccc(F)cc1` [Compound 2001] displayed an EC50 of 0.17 µM. Still for that read-out and setting: as for `CS(=O)(=O)c1ccc2c(c1)CCN(C(=O)O[C@@H]1CN3CCC1CC3)[C@H]2c1ccc(F)cc1` [Compound 2025], the figure is greater than 10 µM; as for `COC(=O)c1ccc2c(c1)CCN(C(=O)O[C@@H]1CN3CCC1CC3)[C@@H]2c1ccc(F)cc1` [Compound 2087], greater than 10 µM.

Still in this assay, the particulars now being: Mus musculus, BV-2, PGRN assay, Table C; secreted mouse PGRN in cell culture medium, ELISA.
For `O=S(=O)(CCN1CCc2ccccc2[C@@H]1c1ccc(F)cc1)C12CCN(CC1)CC2` [Compound 2131, (S)-4-((2-(1-(4-fluorophenyl)-3,4-dihydroisoquinolin-2(1H)-yl)ethyl)sulfonyl)quinuclidine], it took 4.19 µM to reach a half-maximal effect (EC50). For `O=C(N[C@@H]1CCCNC1)N1CCc2ccccc2[C@@H]1c1ccc(F)cc1` [Compound 2172], the concentration for a half-maximal effect (EC50) was determined as 0.43 µM. Still for that read-out and setting: for `COc1ccc(COc2ccc([C@@H]3c4ccccc4CCN3C(=O)OCC34CCN(CC3)CC4)cc2)cc1` [Compound 2137] the value was greater than 3.16 µM.

Compound `CN1CC2CCC(C1)C2OC(=O)N1CCc2ccccc2[C@@H]1c1ccc(F)cc1` (single isomer, unassigned) [Compound 2093] displayed an EC50 of 0.379 µM.

For the compound `N#Cc1ccc2c(c1)CCN(C(=O)N[C@@H]1CN3CCC1CC3)[C@H]2c1ccc(F)cc1` [Compound 2014], the midpoint of the response, the EC50, lay at 2.32 µM. The same measure, in the same setting: for `O=C(N1CCc2ccccc2[C@@H]1c1ccc(F)cc1)C(F)(F)C1(O)CN2CCC1CC2` (stereo partly drawn) [Compound 2198, 2,2-difluoro-1-((S)-1-(4-fluorophenyl)-3,4-dihydroisoquinolin-2(1H)-yl)-2-(3-hydroxyquinuclidin-3-yl)ethan-1-one] the value was greater than 10 µM; for `O=C(O[C@H]1CCNC1)N1CCc2ccccc2[C@@H]1c1ccc(F)cc1` [Compound 2180, (1S)—((S)-pyrrolidin-3-yl)-1-(4-fluorophenyl)-3,4-dihydroisoquinoline-2(1H)-carboxylate], 0.083 µM. In the case of `O=C(OCC12CCN(CC1)CC2)N1CCc2ccccc2[C@H]1c1cc(F)c(F)c(F)c1` [Compound 2148], the EC50 turned out to be 8.83 µM. `O=C(OCC12CCN(CC1)CC2)N1CCc2ccccc2[C@@H]1c1cccc(F)c1F` [Compound 2112] came in with an EC50 of 8.27 µM. In turn, `CS(=O)(=O)c1ccc2c(c1)[C@@H](c1ccc(F)cc1)N(C(=O)N[C@@H]1CN3CCC1CC3)CC2` [Compound 2057] showed an EC50 greater than 10 µM. The same measure, in the same setting: for `CN(CC12CCN(CC1)CC2)C(=O)N1CCc2ccccc2[C@@H]1c1ccc(F)cc1` [Compound 2013] the value was greater than 10 µM. Same read-out and setting: for `O=C(CCC1CCNCC1)N1CCc2ccccc2[C@@H]1c1ccc(F)cc1` [Compound 2184, (S)-1-(1-(4-fluorophenyl)-3,4-dihydroisoquinolin-2(1H)-yl)-3-(piperidin-4-yl)propan-1-one] the value was greater than 10 µM. On the same count and under the same terms, as for `CN1CC2CCC(C1)C2OC(=O)N1CCc2ccccc2[C@@H]1c1ccc(F)cc1` (stereo in doubt) [Compound 2094, (1S)-3-methyl-3-aza-bicyclo[3.2.1]octan-8-yl 1-(4-fluorophenyl)-3,4-dihydroisoquinoline-2(1H)-carboxylate], the figure is 7.22 µM. With `COc1ncc(COc2ccc([C@H]3c4ccccc4CCN3C(=O)OCC34CCN(CC3)CC4)cc2)cn1` [Compound 2145], the EC50 was found to be 2.93 µM. Still for that read-out and setting: for `COC(=O)c1ccc2c(c1)[C@H](c1ccc(F)cc1)N(C(=O)OCC13CCN(CC1)CC3)CC2` [Compound 2044] the value was 4.71 µM. The same measure, in the same setting: as for `COc1ccc(COc2ccc([C@H]3c4ccccc4CCN3C(=O)OCC34CCN(CC3)CC4)cc2)cc1` [Compound 2136], the figure is greater than 3.16 µM; as for `C#CCOc1ccc2c(c1)CCN(C(=O)OCC13CCN(CC1)CC3)[C@H]2c1ccc(F)cc1` [Compound 2078], 5.35 µM.

The compound `COC(=O)c1ccc2c(c1)CCN(C(=O)OCC13CCN(CC1)CC3)[C@H]2c1ccc(F)cc1` [Compound 2072] had an EC50 of 8.08 µM. The same measure, in the same setting: for `CN1CCC2(CC1)CCN(C(=O)N1CCc3ccccc3[C@@H]1c1ccc(F)cc1)C2` [Compound 2121] the value was greater than 10 µM.

For the compound `N#Cc1ccc2c(c1)[C@H](c1ccc(F)cc1)N(C(=O)N[C@@H]1CN3CCC1CC3)CC2` [Compound 2038, 7-cyano-1-(4-fluorophenyl)-N—((S)-quinuclidin-3-yl)-3,4-dihydroisoquinoline-2(1H)-carboxamide], the EC50 is greater than 10 µM. The same measure, in the same setting: as for `O=C([C@@H](O)CC12CCN(CC1)CC2)N1CCc2ccccc2[C@@H]1c1ccc(F)cc1` (single isomer, unassigned) [Compound 2153], the figure is greater than 10 µM; as for `CN1CCC(COC(=O)N2CCc3ccccc3[C@@H]2c2cccc(F)c2F)CC1` [Compound 2134], greater than 10 µM. Consider `CNC(=O)c1ccc2c(c1)CCN(C(=O)NCC13CCN(CC1)CC3)[C@@H]2c1ccc(F)cc1` [Compound 2071], for which the EC50 stood at 3.72 µM.

The compound `COC(=O)c1ccc2c(c1)[C@@H](c1ccc(F)cc1)N(C(=O)OCC13CCN(CC1)CC3)CC2` [Compound 2045] gave an EC50 greater than 10 µM.

Consider `CN1CCO[C@H](CC(=O)N2CCc3ccccc3[C@@H]2c2ccc(F)cc2)C1` [Compound 2003], for which the EC50 was 1.13 µM.

The assay is the same for the next values; noted with them: Mus musculus, BV-2, PGRN assay, Table D; secreted mouse PGRN in cell culture medium, ELISA.
For `CN1[C@@H]2CC[C@H]1[C@H](NC(=O)N1CCc3ccccc3[C@@H]1c1ccc(F)cc1)C2` [Compound 2227], the EC50 is 4.15 µM.

For the compound `O=C(OC[C@H]1CCN1)N1CCc2ccccc2[C@@H]1c1ccc(F)cc1` [Compound 2240], the 50% effective concentration (EC50) worked out at 2.39 µM. The same measure, in the same setting: for `O=C(N1CCCNCC1)N1CCc2ccccc2[C@@H]1c1ccc(F)cc1` [Compound 2264, (S)-(1,4-diazepan-1-yl)(1-(4-fluorophenyl)-3,4-dihydroisoquinolin-2(1H)-yl)methanone] the value was 1.06 µM; for `CN(C(=O)N1CCc2ccccc2[C@@H]1c1ccc(F)cc1)[C@H]1CCNC1` [Compound 2248], 1.24 µM. On the same count and under the same terms, for `O=C(OCC1(F)CNC1)N1CCc2ccccc2[C@@H]1c1ccc(F)cc1` [Compound 2258] the value was 0.27 µM; for `O=C(N1CC[C@@]2(CNCCO2)C1)N1CCc2ccccc2[C@H]1c1ccc(F)cc1` (single isomer, unassigned) [Compound 2323], 8.87 µM.

`CN(C)C1CCN(C(=O)N2CCc3ccccc3[C@@H]2c2ccc(F)cc2)C1` (stereo in doubt) [Compound 2311, ((R)-3-(dimethylamino)pyrrolidin-1-yl)((S)-1-(4-fluorophenyl)-3,4-dihydroisoquinolin-2(1H)-yl)methanone] returned an EC50 of 1.32 µM. On the same count and under the same terms, for `O=C(NC[C@@H]1CCCN1)N1CCc2ccccc2[C@@H]1c1ccc(F)cc1` [Compound 2217] the value was 3.94 µM; for `CN1CCC(OC2(C(=O)N3CCc4ccccc4[C@@H]3c3ccc(F)cc3)CC2)CC1` [Compound 2247], greater than 10 µM.

Consider `CN1C[C@H](NC(=O)N2CCc3ccccc3[C@@H]2c2ccc(F)cc2)C2(CC2)C1` [Compound 2315], for which the half-maximal effective concentration (EC50) amounted to 0.742 µM. The same measure, in the same setting: as for `O=C(NC[C@H]1CCCN1)N1CCc2ccccc2[C@@H]1c1ccc(F)cc1` [Compound 2216], the figure is 2.67 µM. On the same count and under the same terms, as for `N[C@H]1CCN(C(=O)N2CCc3ccccc3[C@H]2c2ccc(F)cc2)C1` (single isomer, unassigned) [Compound 2285], the figure is 3.44 µM; as for `O=C(O[C@H]1CNC[C@H]1F)N1CCc2ccccc2[C@@H]1c1ccc(F)cc1` [Compound 2362], greater than 3.16 µM. On the same count and under the same terms, for `CC1(C)CNC[C@@H]1NC(=O)N1CCc2ccccc2[C@@H]1c1ccc(F)cc1` [Compound 2268] the value was 0.18 µM; for `O=C(N[C@H]1CNCC12CC2)N1CCc2ccccc2[C@@H]1c1ccc(F)cc1` [Compound 2280], 1.18 µM; for `O=C(N[C@@H]1CNCC1(F)F)N1CCc2ccccc2[C@@H]1c1ccc(F)cc1` (stereo in doubt) [Compound 2244, (1 S)—N-(4,4-difluoropyrrolidin-3-yl)-1-(4-fluorophenyl)-3,4-dihydroisoquinoline-2(1H)-carboxamide], 3.26 µM.

`O=C(O[C@@H]1CCNC1)N1CCc2ccccc2[C@H]1c1ccc(F)cc1` [Compound 2266, (R)-pyrrolidin-3-yl (R)-1-(4-fluorophenyl)-3,4-dihydroisoquinoline-2(1H)-carboxylate] gave an EC50 of 0.255 µM. On the same count and under the same terms, for `O=C(O[C@H]1CCNC1)N1CCc2ccccc2[C@H]1c1ccc(F)cc1` [Compound 2272] the value was 2.03 µM; for `CN1CC[C@H](O)[C@@H](O)[C@@H]1COC(=O)N1CCc2ccccc2[C@@H]1c1ccc(F)cc1` (single isomer, unassigned) [Compound 2304], 2.33 µM; for `CN(C)[C@@H]1CCN(C(=O)N2CCc3ccccc3[C@@H]2c2ccc(F)cc2)C1` [Compound 2312], 0.987 µM.

Still in this assay, the particulars now being: PGRN assay, Table C; secreted mouse PGRN in cell culture medium, ELISA.
Take `O=C(OC1[C@@H]2CC3C[C@@H]1CN(C3)C2)N1CCc2ccccc2[C@@H]1c1ccc(F)cc1` (stereo partly drawn) [Compound 2098]: the EC50 came to 0.339 µM. With `CN1CCC(COC(=O)N2CCc3ccccc3[C@@H]2c2ccc(F)cc2)CC1` [Compound 2095], a half-maximal response (EC50) required 3.17 µM.

The same assay, now with this note: PGRN assay, Table D; secreted mouse PGRN in cell culture medium, ELISA.
Compound `CN(C(=O)N1CCc2ccccc2[C@H]1c1ccc(F)cc1)[C@H]1CCNC1` [Compound 2254] came in with an EC50 of 2.91 µM.
